The record followed here is the OligoGym collection.

Oligonucleotides are given in HELM: sugar(base)linkage, 5' to 3'; d 2'-deoxyribose, r ribose, m 2'-O-methylribose, p phosphate. ss, as = sense and antisense strand
Note: test concentration or dose not given here.

In the data set the target is SOST. In words: reporter assay of Huesken 2005. As to conditions: siRNA. On the technique in general: A reporter such as luciferase makes a cellular process visible.
Turning to “RNA1{r(C)p.r(G)p.r(C)p.r(C)p.r(A)p.r(A)p.r(G)p.r(C)p.r(C)p.r(G)p.r(G)p.r(U)p.r(C)p.r(A)p.r(C)p.r(C)p.r(G)p.r(A)p.r(G)p.d(T)p.d(T)}|RNA2{r(C)p.r(U)p.r(C)p.r(G)p.r(G)p.r(U)p.r(G)p.r(A)p.r(C)p.r(C)p.r(G)p.r(G)p.r(C)p.r(U)p.r(U)p.r(G)p.r(G)p.r(C)p.r(G)p.d(C)p.d(T)}$$$RNA1{StrandType:ss}|RNA2{StrandType:as}$”, the normalised inhibition (eCFP-eYFP dual reporter) worked out at 59.1%. For “RNA1{r(C)p.r(G)p.r(C)p.r(C)p.r(U)p.r(G)p.r(C)p.r(U)p.r(G)p.r(C)p.r(C)p.r(C)p.r(A)p.r(A)p.r(C)p.r(G)p.r(C)p.r(C)p.r(A)p.d(T)p.d(T)}|RNA2{r(U)p.r(G)p.r(G)p.r(C)p.r(G)p.r(U)p.r(U)p.r(G)p.r(G)p.r(G)p.r(C)p.r(A)p.r(G)p.r(C)p.r(A)p.r(G)p.r(G)p.r(C)p.r(G)p.d(C)p.d(G)}$$$RNA1{StrandType:ss}|RNA2{StrandType:as}$” the value was 64.6%; for “RNA1{r(C)p.r(G)p.r(C)p.r(G)p.r(A)p.r(G)p.r(C)p.r(U)p.r(G)p.r(C)p.r(A)p.r(C)p.r(U)p.r(U)p.r(C)p.r(A)p.r(C)p.r(C)p.r(C)p.d(T)p.d(T)}|RNA2{r(G)p.r(G)p.r(G)p.r(U)p.r(G)p.r(A)p.r(A)p.r(G)p.r(U)p.r(G)p.r(C)p.r(A)p.r(G)p.r(C)p.r(U)p.r(C)p.r(G)p.r(C)p.r(G)p.d(G)p.d(C)}$$$RNA1{StrandType:ss}|RNA2{StrandType:as}$”, 54.8%.

With “RNA1{r(C)p.r(G)p.r(C)p.r(G)p.r(C)p.r(G)p.r(C)p.r(G)p.r(C)p.r(G)p.r(C)p.r(A)p.r(A)p.r(G)p.r(G)p.r(U)p.r(G)p.r(C)p.r(G)p.d(T)p.d(T)}|RNA2{r(C)p.r(G)p.r(C)p.r(A)p.r(C)p.r(C)p.r(U)p.r(U)p.r(G)p.r(C)p.r(G)p.r(C)p.r(G)p.r(C)p.r(G)p.r(C)p.r(G)p.r(C)p.r(G)p.d(G)p.d(C)}$$$RNA1{StrandType:ss}|RNA2{StrandType:as}$”, the normalised inhibition (eCFP-eYFP dual reporter) was determined as 60.6%. For “RNA1{r(C)p.r(G)p.r(G)p.r(C)p.r(G)p.r(C)p.r(G)p.r(C)p.r(C)p.r(U)p.r(G)p.r(C)p.r(U)p.r(G)p.r(C)p.r(C)p.r(C)p.r(A)p.r(A)p.d(T)p.d(T)}|RNA2{r(U)p.r(U)p.r(G)p.r(G)p.r(G)p.r(C)p.r(A)p.r(G)p.r(C)p.r(A)p.r(G)p.r(G)p.r(C)p.r(G)p.r(C)p.r(G)p.r(C)p.r(C)p.r(G)p.d(G)p.d(G)}$$$RNA1{StrandType:ss}|RNA2{StrandType:as}$” the value was 84.6%.

“RNA1{r(C)p.r(G)p.r(G)p.r(U)p.r(C)p.r(A)p.r(C)p.r(C)p.r(G)p.r(A)p.r(G)p.r(C)p.r(U)p.r(G)p.r(G)p.r(U)p.r(G)p.r(U)p.r(G)p.d(T)p.d(T)}|RNA2{r(C)p.r(A)p.r(C)p.r(A)p.r(C)p.r(C)p.r(A)p.r(G)p.r(C)p.r(U)p.r(C)p.r(G)p.r(G)p.r(U)p.r(G)p.r(A)p.r(C)p.r(C)p.r(G)p.d(G)p.d(C)}$$$RNA1{StrandType:ss}|RNA2{StrandType:as}$”: the normalised inhibition (eCFP-eYFP dual reporter) was 52.2%. “RNA1{r(C)p.r(G)p.r(U)p.r(G)p.r(U)p.r(A)p.r(G)p.r(U)p.r(G)p.r(G)p.r(A)p.r(G)p.r(G)p.r(G)p.r(C)p.r(C)p.r(A)p.r(G)p.r(G)p.d(T)p.d(T)}|RNA2{r(C)p.r(C)p.r(U)p.r(G)p.r(G)p.r(C)p.r(C)p.r(C)p.r(U)p.r(C)p.r(C)p.r(A)p.r(C)p.r(U)p.r(A)p.r(C)p.r(A)p.r(C)p.r(G)p.d(G)p.d(A)}$$$RNA1{StrandType:ss}|RNA2{StrandType:as}$” registered a normalised inhibition (eCFP-eYFP dual reporter) of 60.7%. “RNA1{r(C)p.r(G)p.r(U)p.r(G)p.r(U)p.r(C)p.r(C)p.r(G)p.r(A)p.r(G)p.r(U)p.r(A)p.r(C)p.r(A)p.r(G)p.r(C)p.r(U)p.r(G)p.r(C)p.d(T)p.d(T)}|RNA2{r(G)p.r(C)p.r(A)p.r(G)p.r(C)p.r(U)p.r(G)p.r(U)p.r(A)p.r(C)p.r(U)p.r(C)p.r(G)p.r(G)p.r(A)p.r(C)p.r(A)p.r(C)p.r(G)p.d(T)p.d(C)}$$$RNA1{StrandType:ss}|RNA2{StrandType:as}$” came in with a normalised inhibition (eCFP-eYFP dual reporter) of 54.8%. Substance “RNA1{r(C)p.r(U)p.r(A)p.r(C)p.r(C)p.r(G)p.r(C)p.r(G)p.r(C)p.r(G)p.r(C)p.r(A)p.r(G)p.r(C)p.r(G)p.r(C)p.r(G)p.r(U)p.r(G)p.d(T)p.d(T)}|RNA2{r(C)p.r(A)p.r(C)p.r(G)p.r(C)p.r(G)p.r(C)p.r(U)p.r(G)p.r(C)p.r(G)p.r(C)p.r(G)p.r(C)p.r(G)p.r(G)p.r(U)p.r(A)p.r(G)p.d(C)p.d(G)}$$$RNA1{StrandType:ss}|RNA2{StrandType:as}$” had a normalised inhibition (eCFP-eYFP dual reporter) of 50.5%. The same measure for “RNA1{r(C)p.r(U)p.r(C)p.r(A)p.r(A)p.r(G)p.r(G)p.r(A)p.r(C)p.r(U)p.r(U)p.r(C)p.r(G)p.r(G)p.r(G)p.r(A)p.r(C)p.r(C)p.r(G)p.d(T)p.d(T)}|RNA2{r(C)p.r(G)p.r(G)p.r(U)p.r(C)p.r(C)p.r(C)p.r(G)p.r(A)p.r(A)p.r(G)p.r(U)p.r(C)p.r(C)p.r(U)p.r(U)p.r(G)p.r(A)p.r(G)p.d(C)p.d(T)}$$$RNA1{StrandType:ss}|RNA2{StrandType:as}$”: 62.6%. For “RNA1{r(C)p.r(U)p.r(C)p.r(G)p.r(G)p.r(A)p.r(G)p.r(A)p.r(G)p.r(U)p.r(A)p.r(C)p.r(C)p.r(C)p.r(C)p.r(G)p.r(A)p.r(G)p.r(C)p.d(T)p.d(T)}|RNA2{r(G)p.r(C)p.r(U)p.r(C)p.r(G)p.r(G)p.r(G)p.r(G)p.r(U)p.r(A)p.r(C)p.r(U)p.r(C)p.r(U)p.r(C)p.r(C)p.r(G)p.r(A)p.r(G)p.d(C)p.d(T)}$$$RNA1{StrandType:ss}|RNA2{StrandType:as}$” the value was 44.4%. The same measure for “RNA1{r(C)p.r(U)p.r(G)p.r(G)p.r(U)p.r(G)p.r(G)p.r(C)p.r(C)p.r(U)p.r(C)p.r(G)p.r(U)p.r(G)p.r(C)p.r(A)p.r(A)p.r(G)p.r(U)p.d(T)p.d(T)}|RNA2{r(A)p.r(C)p.r(U)p.r(U)p.r(G)p.r(C)p.r(A)p.r(C)p.r(G)p.r(A)p.r(G)p.r(G)p.r(C)p.r(C)p.r(A)p.r(C)p.r(C)p.r(A)p.r(G)p.d(G)p.d(C)}$$$RNA1{StrandType:ss}|RNA2{StrandType:as}$”: 52.5%. “RNA1{r(C)p.r(U)p.r(U)p.r(C)p.r(A)p.r(C)p.r(C)p.r(C)p.r(G)p.r(C)p.r(U)p.r(A)p.r(C)p.r(G)p.r(U)p.r(G)p.r(A)p.r(C)p.r(C)p.d(T)p.d(T)}|RNA2{r(G)p.r(G)p.r(U)p.r(C)p.r(A)p.r(C)p.r(G)p.r(U)p.r(A)p.r(G)p.r(C)p.r(G)p.r(G)p.r(G)p.r(U)p.r(G)p.r(A)p.r(A)p.r(G)p.d(T)p.d(G)}$$$RNA1{StrandType:ss}|RNA2{StrandType:as}$” registered a normalised inhibition (eCFP-eYFP dual reporter) of 59.4%.

“RNA1{r(G)p.r(A)p.r(A)p.r(C)p.r(G)p.r(G)p.r(A)p.r(G)p.r(G)p.r(G)p.r(C)p.r(G)p.r(G)p.r(C)p.r(C)p.r(U)p.r(C)p.r(C)p.r(C)p.d(T)p.d(T)}|RNA2{r(G)p.r(G)p.r(G)p.r(A)p.r(G)p.r(G)p.r(C)p.r(C)p.r(G)p.r(C)p.r(C)p.r(C)p.r(U)p.r(C)p.r(C)p.r(G)p.r(U)p.r(U)p.r(C)p.d(T)p.d(C)}$$$RNA1{StrandType:ss}|RNA2{StrandType:as}$” yielded a normalised inhibition (eCFP-eYFP dual reporter) of 52.6%.
